Patent publication US20200399222A1, “PICOLINAMIDES AS FUNGICIDES” (Dow AgroSciences LLC, priority 2018, published 2020)
Where two headings read alike, the source gives them in different places.

What was measured:
Zymoseptoria tritici = experiment: Leaf blotch of wheat (SEPTTR) disease control on wheat seedlings; type: in vivo; details: High volume application, 100 ppm
Experimental: Example A: Evaluation of Fungicidal Activity: Leaf Blotch of Wheat (Zymoseptoria tritici; Bayer Code […]) Technical grades of materials were dissolved in acetone, which were then mixed with nine volumes of water containing 110 ppm Triton X-100. The fungicide solutions were applied onto wheat seedlings using an automated booth sprayer to run-off. All sprayed plants were allowed to air dry prior to further handling. All fungicides were evaluated using the aforementioned method for their activity vs. all target diseases, unless stated otherwise. Wheat leaf blotch and brown rust activity were also evaluated using track spray applications, in which case the fungicides were formulated as EC formulations, containing 0.1% Trycol 5941 in the spray solutions. Wheat plants (variety Yuma) were grown from seed in a greenhouse in 50% mineral soil/50% soil-less Metro mix until the first leaf was fully emerged, with 7-10 seedlings per pot. These plants were inoculated with an aqueous spore suspension of Zymoseptoria tritici either prior to or after fungicide treatments. After inoculation the plants were kept in 100% relative humidity (one day in a dark dew chamber followed by two to three days in a lighted dew chamber at 20° C.) to permit spores to germinate and infect the leaf. The plants were then transferred to a greenhouse set at 20° C. for disease to develop. When disease symptoms were fully expressed on the 1st leaves of untreated plants, infection levels were assessed on a scale of 0 to 100 percent disease severity. Percent disease control was calculated using the ratio of disease severity on treated plants relative to untreated plants.

Puccinia triticina = experiment: Wheat brown rust (PUCCRT) disease control on wheat seedlings; type: in vivo; details: High volume application, 100 ppm
Experimental: Technical grades of materials were dissolved in acetone, which were then mixed with nine volumes of water containing 110 ppm Triton X-100. The fungicide solutions were applied onto wheat seedlings using an automated booth sprayer to run-off. All sprayed plants were allowed to air dry prior to further handling. All fungicides were evaluated using the aforementioned method for their activity vs. all target diseases, unless stated otherwise. Wheat leaf blotch and brown rust activity were also evaluated using track spray applications, in which case the fungicides were formulated as EC formulations, containing 0.1% Trycol 5941 in the spray solutions. Example B: Evaluation of Fungicidal Activity: Wheat Brown Rust (Puccinia triticina; Synonym: Puccinia recondita f. sp. tritici; Bayer Code PUCCRT) Wheat plants (variety Yuma) were grown from seed in a greenhouse in 50% mineral soil/50% soil-less Metro mix until the first leaf was fully emerged, with 7-10 seedlings per pot. These plants were inoculated with an aqueous spore suspension of Puccinia triticina either prior to or after fungicide treatments. After inoculation the plants were kept in a dark dew room at 22° C. with 100% relative humidity overnight to permit spores to germinate and infect the leaf. The plants were then transferred to a greenhouse set at 24° C. for disease to develop. Fungicide formulation, application and disease assessment followed the procedures as described in the Example A.

[1] = 24 h, 1 Day Protectant, read-out: SEPTTR disease control rating, 1DP
[2] = 72 h, 3 Day Curative, read-out: SEPTTR disease control rating, 3DC
[3] = 24 h, 1 Day Protectant, read-out: PUCCRT disease control rating, 1DP
[4] = 72 h, 3 Day Curative, read-out: PUCCRT disease control rating, 3DC

Row | Compound | pest or weed control at 100 ppm (Zymoseptoria tritici; [1]) | pest or weed control at 100 ppm (Zymoseptoria tritici; [2]) | pest or weed control at 100 ppm (Puccinia triticina; [3]) | pest or weed control at 100 ppm (Puccinia triticina; [4])
1 | COc1ccnc(C(=O)N[C@@H](C)C(=O)OC(C)C(C)c2c(C)cc(F)cc2C)c1O (stereo partly drawn) [Example 165] | > 80% | > 80% | > 80% | > 80%
2 | COc1ccnc(C(=O)N[C@H](C)C(=O)O[C@@H](C)[C@@H](C)c2ccc(F)cc2)c1O [Example 151] | < 80% | < 80% | < 80% | < 0%
3 | COc1ccnc(C(=O)N[C@H](C)C(=O)O[C@H](C)[C@@H](C)c2ccc(F)cc2C)c1O [Example 154] | < 80% | < 80% | < 0% | < 0%
4 | COc1ccnc(C(=O)N[C@@H](C)C(=O)O[C@H](C)[C@H](C)c2ccccc2C(F)(F)F)c1O [Example 161] | < 80% | < 80% | < 0% | < 0%
5 | COc1ccnc(C(=O)N[C@H](C(=O)O[C@@H](C)[C@@H](C)c2ccc(F)cc2C)C(C)C)c1O [Example 138] | > 80% | < 80% | > 80% | > 80%
6 | COc1ccnc(C(=O)N[C@H](C(=O)O[C@H](C)[C@H](C)c2ccc(F)cc2C)C(C)C)c1O [Example 143] | < 80% | < 80% | > 80% | < 0%
7 | COc1ccnc(C(=O)N[C@H](C)C(=O)O[C@H](C)[C@@H](C)c2ccccc2C)c1O [Example 155] | < 80% | < 80% | < 80% | < 80%
8 | COc1ccnc(C(=O)N[C@H](C)C(=O)O[C@H](C)[C@H](C)c2ccc(F)cc2C)c1O [Example 153] | < 80% | < 80% | < 80% | < 80%
9 | COc1ccc([C@H](C)[C@H](C)OC(=O)[C@@H](NC(=O)c2nccc(OC)c2O)C(C)C)c(C)c1 [Example 142] | > 80% | < 80% | > 80% | > 80%
10 | COc1ccnc(C(=O)NCC(=O)O[C@@H](C)[C@@H](C)c2ccc(F)cc2C)c1O [Example 118] | < 0% | < 80% | > 80% | > 80%
11 | COc1ccnc(C(=O)NCC(=O)O[C@@H](C)[C@H](C)c2ccccc2C)c1O [Example 120] | < 0% | < 80% | < 80% | < 80%
12 | COc1ccc([C@H](C)[C@H](C)OC(=O)[C@@H](C)NC(=O)c2nccc(OC)c2O)c(C)c1 [Example 152] | < 80% | < 80% | > 80% | < 80%
13 | COc1ccnc(C(=O)N[C@@H](C)C(=O)O[C@@H](C)[C@@H](C)c2ccccc2)c1O [Example 171] | < 80% | < 80% | > 80% | > 80%
14 | COc1ccc([C@@H](C)[C@@H](C)OC(=O)[C@H](C)NC(=O)c2nccc(OC)c2O)c(C)c1 [Example 137] | < 80% | < 80% | > 80% | < 80%
15 | COc1ccnc(C(=O)N[C@H](C(=O)O[C@H](C)[C@@H](C)c2ccccc2C)C(C)C)c1O [Example 145] | < 80% | < 80% | < 80% | < 80%
